IC50 data for 49 compounds are collected here from patent publication US20260265222A1, “1H-PYRROLE-2-AMIDE DERIVATIVE, PHARMACEUTICAL COMPOSITION AND METHOD FOR TREATING AND/OR PREVENTING YTHDC1-RELATED DISEASES” (priority 2023, published 2026).

For this assay, the target named is T1, GST-YTHDC1 (345-509) protein (Homo sapiens, UniProt Q96MU7).
T1 construct: GST-YTHDC1 (345-509) protein
In words: Fluorescence polarization-based in vitro enzyme-level test against YTHDC1. Type of assay: binding. The conditions noted are these: 30 nM GST-YTHDC1 (345-509), FAM-labeled m6A-modified single-stranded oligonucleotide, 18° C., 4 hours; read-out: IC50 (Inhibitory Activity against YTHDC1).

For orientation: IC50 means the point on the concentration scale where inhibition reaches its midpoint. Consider `CS(=O)(=O)c1ccccc1-c1ccnc2[nH]c(C(=O)Nc3ccc(-c4cncs4)cc3)cc12` [Compound 70], for which the IC50 is 2280 nM.

Turning to `O=C(Nc1ccc(-c2cnco2)cc1)c1cc(C(=O)c2ccccc2N2CCSCC2)c[nH]1` [Compound 118], the IC50 was 12 nM. For the compound `CC(C)(C)NS(=O)(=O)c1ccccc1-c1nccc2[nH]c(C(=O)Nc3ccc(-c4cncs4)cc3)cc12` [Compound 57], the IC50 is more than 50000 nM. `CN(C)c1ncc(-c2ccc(NC(=O)c3cc(C(=O)c4ccccc4C(F)(F)F)c[nH]3)cc2)o1` [Compound 75]: the IC50 was 8.5 nM. As to `CSc1ccccc1-c1nccc2[nH]c(C(=O)Nc3ccc(-c4cncs4)cc3)cc12` [Compound 65], the IC50 worked out at 11200 nM. On to `COC1CN(c2ccccc2C(=O)c2c[nH]c(C(=O)Nc3ccc(-c4cnco4)cc3)c2)C1` [Compound 131], for which the IC50 came out at 35 nM. With `CS(=O)(=O)Nc1ccccc1-c1nccc2[nH]c(C(=O)Nc3ccc(-c4cncs4)cc3)cc12` [Compound 52], the IC50 is 660 nM. Consider `O=C(Nc1ccc(F)cc1)c1cc(C(=O)c2ccccc2C(F)(F)F)c[nH]1` [Compound 15], for which the IC50 was 105 nM.

For the compound `Cc1ncc(-c2ccc(NC(=O)c3cc(C(=O)c4ccccc4C(F)(F)F)c[nH]3)cc2)s1` [Compound 32], the IC50 turned out to be 11 nM. Turning to `O=C(Nc1ccc(-c2cncs2)cc1)c1cc2c(-c3ccccc3[N+](=O)[O-])nccc2[nH]1` [Compound 55], the IC50 turned out to be 278 nM. In the case of `O=C(Nc1ccc(-c2ccc(N3CCCC3)cc2)cc1)c1cc(C(=O)c2ccccc2C(F)(F)F)c[nH]1` [Compound 106], the IC50 turned out to be 1770 nM.

As for `O=C(Nc1ccc(-c2cnc(N3CCNCC3)o2)cc1)c1cc(C(=O)c2ccccc2C(F)(F)F)c[nH]1` [Compound 81], the 50% inhibitory concentration (IC50) was 61 nM.

In the case of `O=C(Nc1ccc(-c2cncs2)cc1)c1cc2c(-c3ccncc3C(F)(F)F)nccc2[nH]1` [Compound 49], the IC50 is more than 50000 nM.

With `COCOc1cc(NC(=O)c2cc(C(=O)c3ccccc3C(F)(F)F)c[nH]2)ccc1-c1cnco1` [Compound 96], the 50% inhibitory concentration (IC50) was found to be 14.5 nM. `CC(=O)c1ccccc1-c1nccc2[nH]c(C(=O)Nc3ccc(-c4cncs4)cc3)cc12` [Compound 51]: the IC50 was more than 50000 nM. Take `CN1CCN(c2ncc(-c3ccc(NC(=O)c4cc(C(=O)c5ccccc5C(F)(F)F)c[nH]4)cc3)o2)CC1` [Compound 79]: the IC50 was determined as 88 nM. For `O=C(Nc1ccc(-c2cnco2)cc1)c1cc(C(=O)c2ccccc2-c2ccccc2)c[nH]1` [Compound 152], the IC50 was 14 nM. Consider `O=C(Nc1ccc(-c2ccncc2)cc1)c1cc(C(=O)c2ccccc2C(F)(F)F)c[nH]1` [Compound 24], for which the half-inhibitory concentration (IC50) came to 12 nM.

`C[C@H]1CN(c2ccccc2C(=O)c2c[nH]c(C(=O)Nc3ccc(-c4cnco4)cc3)c2)CCO1` [Compound 148]: the IC50 was 66 nM.

On to `O=C(Nc1ccc(-c2cnco2)cc1)c1cc(C(=O)c2ccccc2C2=COCC2)c[nH]1` [Compound 145], for which the IC50 is 39 nM. Turning to `O=C(Nc1ccc(-c2cncs2)cc1)c1cc2c(-c3ccccc3OC(F)(F)F)c(F)ccc2[nH]1` [Compound 59], the IC50 is more than 50000 nM. With `C[C@H]1CN(c2ccccc2C(=O)c2c[nH]c(C(=O)Nc3ccc(-c4cnco4)cc3)c2)C[C@H](C)O1` [Compound 149], the IC50 amounted to 41 nM. As for `O=C(Nc1ccc(-c2cnco2)cc1)c1cc(C(=O)c2ccccc2N2CCCCCCC2)c[nH]1` [Compound 141], the figure is 189 nM; as for `Cc1ncsc1-c1ccc(NC(=O)c2cc(C(=O)c3ccccc3C(F)(F)F)c[nH]2)cc1` [Compound 33], 12 nM; as for `O=C(c1ccccc1)c1c[nH]c(C(=O)Nc2cccnc2)c1` [Compound 6], more than 50000 nM. For the compound `O=C(Nc1ccc(-c2cncs2)cc1)c1cc2c(ncn2-c2ccccc2C(F)(F)F)[nH]1` [Compound 42], the IC50 amounted to 180 nM. With `O=C(Nc1ccc(-c2cnco2)cc1)c1cc(C(=O)c2ccccc2C(F)(F)F)c[nH]1` [Compound 28], the IC50 worked out at 10 nM.

On to `O=C(Nc1ccc(-c2cnco2)cc1)c1cc(C(=O)c2ccccc2CCCCO)c[nH]1` [Compound 143], for which the IC50 was found to be 9 nM. With `CC1(C)CN(c2ccccc2C(=O)c2c[nH]c(C(=O)Nc3ccc(-c4cnco4)cc3)c2)CCO1` [Compound 150], the IC50 came to 84 nM. `CC(C)(C)OC(=O)N1CCc2cc(-c3ccc(NC(=O)c4cc(C(=O)c5ccccc5C(F)(F)F)c[nH]4)cc3)ccc21` [Compound 124]: the IC50 is not below 50000 nM. Regarding `CC(C)n1nccc1-c1nccc2[nH]c(C(=O)Nc3ccc(-c4cncs4)cc3)cc12` [Compound 40], the IC50 is more than 50000 nM. `CN1CCN(c2ccc(-c3ccc(NC(=O)c4cc(C(=O)c5ccccc5C(F)(F)F)c[nH]4)cc3)cc2)CC1` [Compound 109]: the IC50 came out at 44 nM.

With `O=C(Nc1ccc(-c2cnco2)cc1)c1cc(C(=O)c2ccccc2N2CCOCC2)c[nH]1` [Compound 138], the IC50 stood at 20 nM.

With `O=C(Nc1ccc(C(F)(F)F)cc1[N+](=O)[O-])c1cc(C(=O)c2ccccc2C(F)(F)F)c[nH]1` [Compound 112], the IC50 was not below 50000 nM. As for `O=C1CC2C=C(c3ccc(NC(=O)c4cc(C(=O)c5ccccc5C(F)(F)F)c[nH]4)cc3)C=CC2N1` (stereo not shown) [Compound 126], the figure is 13 nM; as for `CS(=O)(=O)c1ccc(NC(=O)c2cc(C(=O)c3ccccc3C(F)(F)F)c[nH]2)cc1` [Compound 100], 162 nM. For the compound `CC(=O)c1ccc(NC(=O)c2cc(C(=O)c3ccccc3C(F)(F)F)c[nH]2)cc1` [Compound 19], the IC50 amounted to 31 nM. For `O=C(Nc1ccc(-c2cncs2)cc1)c1cc2c(-c3ccccc3)nccc2[nH]1` [Compound 47], the IC50 was more than 50000 nM. Consider `O=C(Nc1ccc(Br)cc1)c1cc(C(=O)c2ccccc2C(F)(F)F)c[nH]1` [Compound 16], for which the IC50 was 41 nM.

`N#Cc1ccc(-c2ccc(NC(=O)c3cc(C(=O)c4ccccc4C(F)(F)F)c[nH]3)cc2)s1` [Compound 31]: the IC50 came out at 15 nM.

As to `CC(C)(C)OC(=O)N1CCN2c3ccc(NC(=O)c4cc(C(=O)c5ccccc5C(F)(F)F)c[nH]4)cc3OCC2C1` (stereo not shown) [Compound 82], the IC50 is 125 nM. Take `O=C(Nc1ccc(Cc2ccccc2)cc1)c1cc(C(=O)c2ccccc2C(F)(F)F)c[nH]1` [Compound 119]: the IC50 was 14200 nM. In the case of `O=C(Nc1ccc(-c2cncs2)cc1)c1cc2c(-c3ccccc3OC(F)(F)F)nccc2[nH]1` [Compound 44], the IC50 is 138 nM. For `O=C(Nc1ccc(-c2cnco2)cc1)c1cc(C(=O)c2ccccc2N2CCOC2=O)c[nH]1` [Compound 136], the IC50 worked out at 28 nM. In the case of `CN(C)c1ccccc1-c1ccc(NC(=O)c2cc(C(=O)c3ccccc3C(F)(F)F)c[nH]2)cc1` [Compound 110], the IC50 came to 413 nM. For `CC(C)(C)OC(=O)Nc1ccc(-c2ccc(NC(=O)c3cc(C(=O)c4ccccc4C(F)(F)F)c[nH]3)cc2)cc1` [Compound 116], the IC50 is not below 50000 nM. On to `CS(=O)(=O)c1ccccc1-c1nccc2[nH]c(C(=O)Nc3ccc(-c4cncnc4)cc3)cc12` [Compound 74], for which the IC50 is more than 50000 nM. For `O=C(Nc1cccnc1)c1cc(C(=O)c2ccccc2Br)c[nH]1` [Compound 5], the IC50 came out at 1780 nM. As for `O=C(Nc1ccc(-c2cnc(N3CC(F)(F)C3)s2)cc1)c1cc(C(=O)c2ccccc2C(F)(F)F)c[nH]1` [Compound 35], the figure is 424 nM.
